Test results: ChEMBL document CHEMBL3046045, “Synthesis of 7-methoxyapigeninidin and its fungicidal activity against Gloeocercospora sorghi” (1996)
Activity calls are given as the source filed them. The calls are words filed in the database; no cut-off is given here.

Experiments:
[1] = system: Pyricularia oryzae; assay: Antifungal activity against Magnaporthe oryzae assessed as inhibition of spore germination; format: functional
[2] = system: Microdochium sorghi; assay: Antifungal activity against Gloeocercospora sorghi in potato dextrose agar medium assessed as inhibition of radial growth; format: functional
[3] = system: Pyricularia oryzae; assay: Antifungal activity against Magnaporthe oryzae assessed as radial growth inhibition at 100 ppm; format: functional, organism-based
[4] = system: Pyricularia oryzae; assay: Antifungal activity against Magnaporthe oryzae assessed as inhibition of spore germination at 100 ppm; format: functional, organism-based
[5] = system: Microdochium sorghi; assay: Antifungal activity against Gloeocercospora sorghi in potato dextrose agar medium assessed as inhibition of radial growth at 100 ppm; format: functional

SMILES	I50 [1] [ppm]	I50 [2] [ppm]	inhibition [3]	inhibition [4]	inhibition at 100 ppm [5] [%]
COc1cc(O)c2ccc(-c3ccc(O)cc3)[o+]c2c1.[Cl-] [7-METHOXYAPIGENINIDIN]	50	50	inactive		
Oc1ccc(-c2ccc3c(O)cc(O)cc3[o+]2)cc1 [APIGENIDIN]			inactive	inactive	25
